Source: ChEMBL document CHEMBL1201862, “PubChem BioAssay data set” (2004)
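48-hour exposure; five concentrations; linearly interpolated endpoints. GI50: concentration for 50% inhibition of growth.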 Calls of active or inactive are those of the source. No stated cut-off is given here; in the data, active = GI50 up to about 1.1 µM and inactive = higher.

Columns and labels:
Assay in all cases: NCI-60 cell line screen, 48 h
SF-295 = tested on: SF-295
M14 = tested on: M14
SF-539 = tested on: SF-539
RXF 393 = tested on: RXF 393
LOX IMVI = tested on: LOX IMVI
OVCAR-4 = tested on: OVCAR-4
RPMI-8226 = tested on: RPMI-8226
TK-10 = tested on: TK-10
SK-OV-3 = tested on: SK-OV-3
COLO 205 = tested on: COLO 205
HL-60 = tested on: HL-60
NCI-H226 = tested on: NCI-H226
KM12 = tested on: KM12
SF-268 = tested on: SF-268
CAKI-1 = tested on: CAKI-1

Measured: GI50

CCOC(=O)c1ccc(/C(C)=N/NC(N)=S)cc1
inactive: SF-295 > 100 µM | M14 > 100 µM | SF-539 > 100 µM | RXF 393 > 100 µM | LOX IMVI > 100 µM | OVCAR-4 > 100 µM | RPMI-8226 > 100 µM | TK-10 > 100 µM | SK-OV-3 > 100 µM | COLO 205 > 100 µM | HL-60 > 100 µM

CCOC(=O)[C@@]12C(C)=CC(=O)O[C@]1(C)C1C(=O)NC(=O)C12 (stereo partly drawn)
inactive: SF-295 > 100 µM | NCI-H226 7.16 µM | KM12 > 100 µM | M14 > 100 µM | SF-539 > 100 µM | RXF 393 > 100 µM | LOX IMVI > 100 µM | OVCAR-4 > 100 µM | RPMI-8226 > 100 µM | TK-10 > 100 µM | SK-OV-3 > 100 µM | COLO 205 > 100 µM | HL-60 > 100 µM

O=C(CC(=O)Nc1ccccc1O)Nc1ccccc1O
inactive: SF-295 39 µM | NCI-H226 63.1 µM | KM12 10.8 µM | M14 16.1 µM | SF-539 19.1 µM | SF-268 26.9 µM | OVCAR-4 34.3 µM | RPMI-8226 5.13 µM | CAKI-1 68.1 µM | TK-10 53 µM | SK-OV-3 > 100 µM | COLO 205 18.5 µM | HL-60 1.83 µM

NC(=O)C#CC#CC#CCO
inactive: SF-295 3.94 µM | NCI-H226 11.6 µM | KM12 3.31 µM | M14 1.98 µM | RXF 393 2.09 µM | LOX IMVI 2.09 µM | SF-268 2.21 µM | OVCAR-4 1.83 µM | RPMI-8226 2.05 µM | CAKI-1 1.92 µM | TK-10 1.61 µM | SK-OV-3 12.8 µM | COLO 205 1.23 µM | HL-60 1.26 µM

COc1ccc(-c2cn3ccsc3n2)cc1
inactive: SF-295 > 100 µM | NCI-H226 > 100 µM | KM12 > 100 µM | M14 > 100 µM | SF-539 75.9 µM | LOX IMVI 36.2 µM | SF-268 > 100 µM | OVCAR-4 > 100 µM | RPMI-8226 22.3 µM | CAKI-1 > 100 µM | TK-10 > 100 µM | SK-OV-3 > 100 µM | COLO 205 33.1 µM | HL-60 24.7 µM

COC(=O)CCC(=O)C(C#N)c1ccc(Cl)cc1Cl (stereo not drawn)
inactive: SF-295 > 100 µM | NCI-H226 > 100 µM | KM12 > 100 µM | M14 > 100 µM | SF-539 > 100 µM | LOX IMVI > 100 µM | SF-268 > 100 µM | RPMI-8226 > 100 µM | CAKI-1 > 100 µM | TK-10 > 100 µM | SK-OV-3 > 100 µM | HL-60 > 100 µM

O=C(/C=C(\O)C(=O)O)/C=C(\O)c1ccccc1
inactive: SF-295 > 4.65 µM | NCI-H226 > 4.65 µM | M14 > 100 µM | RXF 393 > 100 µM | LOX IMVI > 4.65 µM | SF-268 > 4.65 µM | OVCAR-4 > 4.65 µM | CAKI-1 > 4.65 µM | TK-10 > 4.65 µM | SK-OV-3 > 4.65 µM | COLO 205 > 4.65 µM | HL-60 > 4.65 µM

CN(C)/C=N\c1nc(=O)n(C2CCC(CO)O2)cc1F (stereo not drawn)
inactive: SF-295 > 100 µM | NCI-H226 > 100 µM | KM12 > 100 µM | M14 > 100 µM | RXF 393 > 100 µM | LOX IMVI > 100 µM | SF-268 > 100 µM | OVCAR-4 > 100 µM | RPMI-8226 > 100 µM | CAKI-1 > 100 µM | TK-10 > 100 µM | SK-OV-3 > 100 µM | COLO 205 > 100 µM | HL-60 > 100 µM
